Laboratory results from the supplement of paper PMC10307832.

Key:
Assay in all cases: relative viability (nuclei count vs DMSO), 5 days (fraction); higher = more cells survive
[1] = compound: COc1cc2nc(N3CCCN(C)CC3)nc(NC3CCN(Cc4ccccc4)CC3)c2cc1OC + C[C@]1(O)C[C@@H](c2nc(-c3ccc4ccc(-c5ccccc5)nc4c3)c3c(N)nccn32)C1 [Linsitinib] (partner 1 µM)
Outline: (§1)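 Each reported value is a median over duplicate plates. It expresses relative viability: treated-well nuclei count divided by vehicle-well nuclei count. Lung cancer cell lines in 1536-well plates were dosed by pin tool a day after seeding, alone with one drug or with a fixed anchor-drug dose plus five library-drug doses (not always all listed) in √10 steps, and nuclei were counted after 5 days.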

AZD6482 + Crizotinib = compound: Cc1cc([C@@H](C)Nc2ccccc2C(=O)O)c2nc(N3CCOCC3)cc(=O)n2c1 [AZD6482] + C[C@@H](Oc1cc(-c2cnn(C3CCNCC3)c2)cnc1N)c1c(Cl)ccc(F)c1Cl [Crizotinib] (partner 1 µM)
Outline: as §1

AZD6482 + Pemetrexed = compound: Cc1cc([C@@H](C)Nc2ccccc2C(=O)O)c2nc(N3CCOCC3)cc(=O)n2c1 [AZD6482] + Nc1nc2[nH]cc(CCc3ccc(C(=O)N[C@@H](CCC(=O)O)C(=O)O)cc3)c2c(=O)[nH]1 [Pemetrexed] (partner 0.2 µM)
Outline: as §1

AZD6482 + Olaparib = compound: Cc1cc([C@@H](C)Nc2ccccc2C(=O)O)c2nc(N3CCOCC3)cc(=O)n2c1 [AZD6482] + O=C(c1cc(Cc2n[nH]c(=O)c3ccccc23)ccc1F)N1CCN(C(=O)C2CC2)CC1 [Olaparib] (partner 8 µM)
Outline: as §1

Cell Line	relative viability ([1]; first compound 0.2 µM)	relative viability ([1]; first compound 0.6325 µM)	relative viability ([1]; first compound 2 µM)	relative viability ([1]; first compound 6.325 µM)	relative viability (AZD6482 + Crizotinib; first compound 0.08 µM)	relative viability (AZD6482 + Crizotinib; first compound 0.253 µM)	relative viability (AZD6482 + Crizotinib; first compound 0.8 µM)	relative viability (AZD6482 + Crizotinib; first compound 2.53 µM)	relative viability (AZD6482 + Crizotinib; first compound 8 µM)	relative viability (AZD6482 + Pemetrexed; first compound 0.08 µM)	relative viability (AZD6482 + Pemetrexed; first compound 0.253 µM)	relative viability (AZD6482 + Pemetrexed; first compound 0.8 µM)	relative viability (AZD6482 + Pemetrexed; first compound 2.53 µM)	relative viability (AZD6482 + Pemetrexed; first compound 8 µM)	relative viability (AZD6482 + Olaparib; first compound 0.08 µM)	relative viability (AZD6482 + Olaparib; first compound 0.253 µM)	relative viability (AZD6482 + Olaparib; first compound 0.8 µM)	relative viability (AZD6482 + Olaparib; first compound 2.53 µM)	relative viability (AZD6482 + Olaparib; first compound 8 µM)
NCI-H1755	0.974	0.982	0.946	0.932	0.717	0.769	0.704	0.545	0.487	0.416	0.435	0.436	0.383	0.36	0.839	0.755	0.769	0.583	0.601
HCC-78	0.427	0.416	0.482	0.348	0.295	0.322	0.245	0.227	0.235	0.87	0.857	0.926	0.862	0.953	0.663	0.641	0.533	0.383	0.416
NCI-H322M	0.826	0.887	0.939	0.901	0.769	0.826	0.79	0.627	0.741	0.572	0.61	0.62	0.49	0.498	0.671	0.761	0.749	0.494	0.701
NCI-H3122	1.01	1.01	1.03	1.06	0.243	0.285	0.27	0.212	0.25	0.191	0.198	0.2	0.189	0.189	0.608	0.729	0.657	0.585	0.616
COR-L23	0.966	1.02	1.05	1	0.467	0.733	0.749	0.489	0.478	0.198	0.205	0.197	0.182	0.204	0.272	0.414	0.364	0.195	0.34
NCI-H2087	0.908	0.706	1.05	0.899	0.805	0.93	0.997	0.827	0.984	0.682	0.63	0.596	0.593	0.674	0.578	0.587	0.523	0.345	0.519
LC-2-ad	0.889	0.818	0.891	0.833	0.434		0.476	0.404	0.367	0.279	0.293	0.274	0.302	0.292	0.727	0.735	0.795	0.64	0.803
NCI-H1915	1.05	1.08	1.12	1.08	0.845	0.8	0.935	0.838	0.863	0.491	0.434	0.513	0.349	0.452	0.266	0.268	0.276	0.236	0.258
NCI-H2023	0.767	0.643	0.7	0.405	0.535	0.615	0.509	0.411	0.494	0.254	0.226	0.204	0.175	0.176	0.496	0.457	0.43	0.353	0.379
COR-L 105	1.09	0.888	0.833	0.628	0.8	0.742	0.742	0.581	0.828	0.935	1.13	1.26	0.761	1.21	0.607	0.851	0.726	0.549	0.687
RERF-LC-KJ	0.883	0.856	0.894	0.886	0.745	0.776	0.832	0.818	0.676	0.461	0.459	0.465	0.439	0.449	0.787	0.963	0.886	0.963	0.667
LXF-289	0.956	0.954	0.98	0.923	0.813	0.837	0.898	0.794	0.736	0.678	0.94	1.08	0.849	0.922	1.02	1.05	1.11	0.986	0.918
PC-14	0.923	0.91	1.02	0.865	0.826	0.896	0.904	0.783	0.876	0.133	0.125	0.115	0.15	0.135	0.247	0.337	0.405	0.308	0.36
NCI-H650	0.866	0.77	0.943	0.534	0.635		0.786	0.442	0.47	1.01	0.859	0.874	0.568	0.441	0.315	0.364	0.337	0.31	0.268
NCI-H1666	0.866	0.919	0.783	0.675	0.84	1.11	0.823	0.712	0.989	0.902	0.964	0.905	0.735	0.82	0.731	0.722	0.777	0.712	0.773
NCI-H2085	0.9	0.917	0.956	0.84	0.818	0.537	0.519	0.316	0.358	0.567	0.384	0.407	0.317	0.299	0.632	0.358	0.45	0.36	0.303
NCI-H1734	0.964	0.811	0.832	0.83	0.627	0.733	0.622	0.47	0.471	0.408	0.442	0.408	0.396	0.397	0.509	0.538	0.531	0.365	0.509
